Tests used:
Experiment in all cases: relative viability (nuclei count vs DMSO), 5 days (fraction); higher = more cells survive
[1] = compound: CC(C)CCN1c2nc(Nc3cc(F)c(O)c(F)c3)ncc2N(C)C(=O)C1C [BI-D1870]
Outline: (§1)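 Following overnight incubation at 37 °C, lung cancer cell lines in 1536-well plates were pinned with five library-drug doses (not always all listed) in √10 steps on vehicle-anchored plates. The cells then spent 5 days without medium change before a combined fix, permeabilisation and Hoechst stain, 4× imaging and MetaXpress nuclear counts. Viability is the treated-to-vehicle ratio of nuclei, taken as the median across plates. Only plates with control CV below 25% and at least one doubling passed.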

[2] = compound: O=c1ncccn1[C@@H]1O[C@H](CO)[C@@H](O)[C@H]1O [Zebularine]
Outline: as §1

[3] = compound: O=c1ncccn1[C@@H]1O[C@H](CO)[C@@H](O)[C@H]1O [Zebularine] + Nc1nc2[nH]cc(CCc3ccc(C(=O)N[C@@H](CCC(=O)O)C(=O)O)cc3)c2c(=O)[nH]1 [Pemetrexed] (partner 0.2 µM)
Outline: (§2)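 Lung cancer cell lines were seeded in 1536-well plates and dosed by pin tool the next day, with either a single drug or a fixed anchor-drug dose combined with five library-drug doses (not always all listed) spaced in √10 steps. Five days later, one step fixed the cells and stained their nuclei (final 0.05% Triton X-100, 1% formaldehyde, 1 ug/ml Hoechst), and nuclei were counted on 4× images. Relative viability is the nuclei count in treated wells divided by the count in vehicle wells, and each value is the median of duplicate plates.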

[4] = compound: CC(C)CCN1c2nc(Nc3cc(F)c(O)c(F)c3)ncc2N(C)C(=O)C1C [BI-D1870] + Cc1nc(NC(=O)N2CCC[C@H]2C(N)=O)sc1-c1ccnc(C(C)(C)C(F)(F)F)c1 [Alpelisib] (partner 2 µM)
Outline: as §2

Cell Line	relative viability ([1]; 0.04 µM)	relative viability ([1]; 0.1265 µM)	relative viability ([1]; 0.4 µM)	relative viability ([1]; 1.265 µM)	relative viability ([1]; 4 µM)	relative viability ([2]; 1 µM)	relative viability ([2]; 3.162 µM)	relative viability ([2]; 10 µM)	relative viability ([2]; 31.62 µM)	relative viability ([2]; 100 µM)	relative viability ([3]; first compound 1 µM)	relative viability ([3]; first compound 3.162 µM)	relative viability ([3]; first compound 10 µM)	relative viability ([3]; first compound 31.62 µM)	relative viability ([3]; first compound 100 µM)	relative viability ([4]; first compound 0.04 µM)	relative viability ([4]; first compound 0.1265 µM)	relative viability ([4]; first compound 0.4 µM)	relative viability ([4]; first compound 1.265 µM)	relative viability ([4]; first compound 4 µM)
LCLC-103H	1.03	0.967	0.94	1.06	0.838	0.959	0.987	0.867	1.04	0.842	0.459	0.443	0.388	0.504	0.443	0.96	0.937	0.864	1.1	0.874
LK-2	1.14	1	1.28	1.21	0.973	1	1.03	0.556	0.544	0.392	0.321	0.298	0.173	0.253	0.131	1.22	1.11	1.11	1.32	0.608
LOU-NH91	1.05	0.945	0.895	1.04	0.729	0.976	1.01	0.875	0.979	0.725	0.368	0.415	0.419	0.355	0.398	0.811	0.796	0.753	0.735	0.605
LU99A	1.01	0.822	0.98	0.827	0.77	1.06	0.997	0.883	0.689	0.246	0.182	0.236	0.162	0.134	0.146	0.621	0.492	0.482	0.565	0.489
LXF-289	1.01	0.946	0.973	1.02	0.846	1.06	0.889	0.931	0.831	0.346	0.919	0.879	0.895	0.702	0.403	1.12	0.983	1	1.02	0.899
NCI-H23	1.21	0.874	0.868	0.939	0.575	1.1	0.91	0.632	0.983	0.881	0.777	0.706	–	0.649	0.494	0.779	0.508	0.614	0.78	0.664
NCI-H322M	0.964	0.907	0.82	0.728	0.748	0.98	0.928	0.784	0.888	0.673	0.595	0.565	0.501	0.635	0.59	0.887	0.79	0.741	0.891	0.765
NCI-H358	1.07	0.834	0.803	0.916	0.775	0.884	0.951	0.596	0.491	0.346	0.159	0.187	0.161	0.162	0.179	0.964	0.745	0.852	0.663	0.415
NCI-H441	1.08	0.922	0.888	1.1	1.17	1.26	0.852	0.502	0.309	0.272	0.274	0.248	0.302	0.185	0.166	0.915	0.675	0.955	0.572	0.434
NCI-H460	1.04	0.96	0.96	0.999	0.703	1.07	1	0.662	0.498	0.096	0.0616	0.0545	0.08	0.076	0.0682	0.613	0.368	0.443	0.347	0.0382
NCI-H520	0.963	0.79	1.11	0.927	0.851	1.11	0.957	0.52	0.388	0.26	0.687	0.588	0.374	0.239	0.215	0.903	0.76	0.85	0.953	0.764
NCI-H596	0.986	0.912	0.939	1.08	1.03	1.12	0.954	0.781	1.06	0.989	0.478	0.513	0.428	0.42	0.494	0.456	0.487	0.43	0.511	0.512
NCI-H647	1.07	0.918	1.05	1.04	0.889	1.01	0.943	0.294	0.203	0.157	0.18	0.183	0.149	0.115	0.115	1.1	0.985	1.16	1.07	0.896
NCI-H650	1.02	0.789	1.08	0.906	0.836	0.956	0.886	0.611	0.496	0.254	0.918	1.03	0.757	0.454	0.286	1.16	0.944	1.14	0.97	0.722
NCI-H661	1.03	0.974	1	1	0.955	1.02	0.958	0.961	1.06	1.04	0.939	0.951	0.832	0.995	0.891	0.516	0.692	0.427	0.599	0.65
NCI-H838	0.962	0.892	0.958	1.07	0.992	1.05	0.962	0.753	0.692	0.352	0.259	0.267	0.234	0.221	0.17	1.04	0.883	0.923	1.17	1.04

Cell Line	relative viability ([1]; 0.04 µM)	relative viability ([1]; 0.1265 µM)	relative viability ([1]; 0.4 µM)	relative viability ([1]; 1.265 µM)	relative viability ([1]; 4 µM)	relative viability ([2]; 1 µM)	relative viability ([2]; 3.162 µM)	relative viability ([2]; 10 µM)	relative viability ([2]; 31.62 µM)	relative viability ([2]; 100 µM)	relative viability ([3]; first compound 1 µM)	relative viability ([3]; first compound 3.162 µM)	relative viability ([3]; first compound 10 µM)	relative viability ([3]; first compound 31.62 µM)	relative viability ([3]; first compound 100 µM)	relative viability ([4]; first compound 0.04 µM)	relative viability ([4]; first compound 0.1265 µM)	relative viability ([4]; first compound 0.4 µM)	relative viability ([4]; first compound 1.265 µM)	relative viability ([4]; first compound 4 µM)
NCI-H1355	1.06	0.917	0.958	1.11	0.861	1.06	0.955	0.749	0.62	0.33	1.04	1.02	0.802	0.623	0.303	0.848	0.768	0.804	0.884	0.716
NCI-H1395	0.905	0.822	0.87	0.988	0.827	0.929	0.86	0.788	0.676	0.511	1.05	0.787	0.661	0.749	0.489	1.56	1.04	1.11	1.05	1.08
NCI-H1437	1.02	0.906	0.992	1.04	0.9	1.07	1	0.761	0.97	0.641	0.322	0.335	0.276	0.295	0.275	1.1	0.964	0.911	0.993	0.754
NCI-H1563	0.991	1.01	0.933	0.972	0.994	0.966	0.969	0.951	1.04	0.998	0.896	0.717	0.689	0.728	0.791	0.946	0.863	0.982	0.897	0.945
NCI-H1651	0.997	0.911	0.945	1.04	0.914	1.04	0.989	0.718	0.911	0.57	0.631	0.556	0.542	0.563	0.347	1.04	0.939	1	0.942	0.941
NCI-H1666	1.12	1.01	0.955	1.16	0.99	1.03	0.904	0.834	1.02	0.868	0.878	0.788	0.753	0.824	0.791	0.77	0.767	0.987	1.14	0.816
NCI-H1734	1.02	0.922	0.978	0.987	0.815	1.02	0.97	0.771	0.579	0.289	0.39	0.459	0.395	0.36	0.232	0.778	0.619	0.683	0.75	0.597
NCI-H1755	1.03	1.01	1.03	1.07	1.01	1.12	0.981	1.02	1.04	0.717	0.365	0.37	0.438	0.638	0.397	0.973	0.852	0.983	0.968	0.869
NCI-H1792	1	0.981	0.828	1.15	0.613	1.1	0.925	0.431	0.449	0.277	1.04	0.71	0.24	0.307	0.271	0.724	0.677	0.641	0.736	0.538
NCI-H1793	1.06	0.803	0.757	1.19	0.801	1.16	1	0.442	0.67	0.237	1.08	0.92	0.292	0.347	0.287	0.647	0.607	0.537	0.69	0.719
NCI-H1915	1.09	0.921	0.969	0.988	0.763	1.04	0.932	0.821	1.08	1.03	0.54	0.46	0.449	0.553	0.513	1.03	1.07	1.03	1.06	1
NCI-H1944	1.12	0.919	0.907	1.03	0.941	0.995	1.02	0.788	0.947	0.718	0.696	0.604	0.614	0.573	0.357	0.907	0.803	0.817	0.927	0.861
NCI-H1975	1.15	0.904	0.99	0.914	0.851	1	0.859	0.519	0.468	0.258	0.323	0.283	0.235	0.206	0.2	0.646	0.572	0.518	0.55	0.34
NCI-H1993	1.03	0.876	0.827	1.15	0.702	1.18	0.945	0.736	0.963	0.774	0.612	0.65	0.518	0.58	0.585	0.619	0.677	0.643	0.708	0.811
NCI-H2009	1.11	0.967	1.02	0.858	0.513	1.05	0.987	0.793	0.704	0.358	1.12	0.962	0.767	0.675	0.211	1.28	1.13	1.21	0.995	0.885
